Data reported in patent US8278320B2, “Azabicyclo[2.2.1]heptane compounds as alpha-7 nicotinic acetylcholine receptor ligands” (Bristol-Myers Squibb Company, priority 2009, dated 2012).
Like-named read-outs stand apart in the source and are kept apart here.

Columns and labels:
[1] = target: T1, α-7 nicotinic ACh receptor ion channel expressed in mammalian HEK 293 cells (Rattus norvegicus, UniProt Q05941); assay: Ca2+-sensitive, fluorescence-based FLIPR assay for α-7 nicotinic acetylcholine receptor channel function (agonist activity); format: cell-based
Procedure: I) α7 Nicotinic Acetycholine Receptor Binding. Membranes were prepared for binding using HEK293 cells stably expressing the rat α7 nicotinic acetycholine receptor (rat α7 nAChR). Cells were homogenized at 4° C. in hypotonic lysis buffer consisting of 10 mM Tris (pH 7.4), 5 mM EDTA and protease inhibitors and centrifuged at 32000×g for 20 minutes. The pellet was washed once in membrane wash buffer consisting of 50 mM Tris (pH 7.4), 1 mM EDTA and protease inhibitors and centrifuged at 32000×g for 20 minutes. This pellet was then resuspended in assay buffer consisting 50 mM KH2PO4 (pH 7.4 at 25° C.), 1 mM EDTA, 0.005% Triton-X 100 and 0.1% (v/v) Sigma Protease Inhibitor Cocktail. Aliquots were then frozen in dry ice/ethanol and kept at −80° C. until the day of the assay. II) A Ca^2+-Sensitive, Fluorescence-Based Assay α-7 for Nicotinic Acetylcholine Receptor Channel Function In Mammalian Cells (“FLIPR”). Summary: Lead compounds are evaluated for agonist activity at α-7, α3β4, α4αβ2, and α1β1δ1ε sub-types of nicotinic ACh receptor ion channels expressed in mammalian HEK 293 cells. Agonist potency and efficacy values are determined from kinetic fluorescence Ca^2+ influx measurements made using a 384 well FLIPR (Fluorescence Image Plate Reader). […] The basal fluorescence from the cells is monitored in real time, followed by the acute addition of test compounds. […]
Target sequence in this assay (Q05941 23-502 limits assumed): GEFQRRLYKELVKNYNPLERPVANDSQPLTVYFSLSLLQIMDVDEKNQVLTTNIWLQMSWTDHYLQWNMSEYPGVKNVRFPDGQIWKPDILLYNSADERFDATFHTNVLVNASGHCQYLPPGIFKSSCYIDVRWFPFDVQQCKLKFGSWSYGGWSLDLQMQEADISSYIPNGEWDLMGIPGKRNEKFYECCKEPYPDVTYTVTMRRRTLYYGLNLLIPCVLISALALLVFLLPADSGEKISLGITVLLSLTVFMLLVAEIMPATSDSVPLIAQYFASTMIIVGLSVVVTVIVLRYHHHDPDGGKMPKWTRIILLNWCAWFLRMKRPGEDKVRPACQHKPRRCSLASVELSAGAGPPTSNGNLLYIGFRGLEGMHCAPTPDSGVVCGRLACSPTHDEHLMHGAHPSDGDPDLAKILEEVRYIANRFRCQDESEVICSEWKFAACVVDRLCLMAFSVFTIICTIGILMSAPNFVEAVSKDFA

[2] = target: T1, α-7 nicotinic ACh receptor ion channel expressed in mammalian HEK 293 cells; assay: as above; format: cell-based; parameters: expressed in transfected cells; details: Ca2+ flux, HEK-293 cells, Fluo-4
Procedure: I) α7 Nicotinic Acetycholine Receptor Binding. Membranes were prepared for binding using HEK293 cells stably expressing the rat α7 nicotinic acetycholine receptor (rat α7 nAChR). Cells were homogenized at 4° C. in hypotonic lysis buffer consisting of 10 mM Tris (pH 7.4), 5 mM EDTA and protease inhibitors and centrifuged at 32000×g for 20 minutes. The pellet was washed once in membrane wash buffer consisting of 50 mM Tris (pH 7.4), 1 mM EDTA and protease inhibitors and centrifuged at 32000×g for 20 minutes. This pellet was then resuspended in assay buffer consisting 50 mM KH2PO4 (pH 7.4 at 25° C.), 1 mM EDTA, 0.005% Triton-X 100 and 0.1% (v/v) Sigma Protease Inhibitor Cocktail. Aliquots were then frozen in dry ice/ethanol and kept at −80° C. until the day of the assay. II) A Ca^2+-Sensitive, Fluorescence-Based Assay α-7 for Nicotinic Acetylcholine Receptor Channel Function In Mammalian Cells (“FLIPR”). Summary: Lead compounds are evaluated for agonist activity at α-7, α3β4, α4αβ2, and α1β1δ1ε sub-types of nicotinic ACh receptor ion channels expressed in mammalian HEK 293 cells. Agonist potency and efficacy values are determined from kinetic fluorescence Ca^2+ influx measurements made using a 384 well FLIPR (Fluorescence Image Plate Reader). […] In this assay, channel expressing HEK cell lines seeded in 384 well assay plates are loaded with a membrane permeant fluorescent Ca^2+ indicator dye, whose 510 nm green emission signal increases in response to elevation of intracellular Ca^2+ concentration. The basal fluorescence from the cells is monitored in real time, followed by the acute addition of test compounds.
Materials and Methods: Reagents: The acetomethoxy (AM) ester of the Ca^2+ indicator dye Fluo-4 was obtained from InVitrogen, (Carlsbad, Calif.). Acetylcholine and all buffer constituents were purchased from Sigma Chemical Company, St. Louis, Mo. G418 and Minimal Essential Medium were purchased from InVitrogen Life Technologies, Carlsbad, Calif. Fetal bovine serum was purchased from (InVitrogen, Carlsbad, Calif.).
Cell Culture: HEK-293 cells were grown in Minimal Essential Medium containing 10% (v/v) fetal bovine serum at 37° C. in a 5% CO2 incubator. HEK-293 cells stably expressing the ion channels were grown in the same medium with the addition of 500 μg/ml G418.
Ca^2+ flux assays of Ca^2+ channels expressed in HEK-293 cells: HEK-293 cells expressing the ion channels of interest were plated in 384 well, black-walled, clear-bottomed, poly-D-lysine coated plates at a density of ˜20,000 cells/well in 20 μl of Minimal Essential Medium containing 10% (v/v) fetal bovine serum and incubated for 2 days at 29° C. in a 5% CO2 incubator. Prior to assay, cells were loaded with the Fluo-4 AM ester. […] Dye loading was allowed to proceed for 90 minutes at room temperature at which time the dye loading solution was removed and replaced with 40 μl/well of Hanks buffer. Cells loaded with dye were loaded onto a FLIPR384 (Molecular Devices, Sunnyvale, Calif.). Fluo-4 dye was excited using the 488 nm line of an argon laser. Emission was filtered using a 540+/−30 nm bandpass filter. For evaluation of the effects of test compounds using the Ca^2+ flux assay, compounds to be tested were provided in assay ready plates. For nicotinic receptor ion channel expressing cells, the assay was initiated by the addition of 20 μl/well of Hanks buffer containing test compounds. For all assays, data were collected at 1 Hz for 10 seconds (baseline), at which time the compound containing stimulus buffers are added, and further measurements collected at 0.33 Hz for 3 min.
Data Analysis: The statistical robustness of the nicotinic receptor Ca^2+ flux assays is determined from blanks and totals wells. […] The raw fluorescence units data files generated on the FLIPR plate reader are automatically exported and processed by in-house data analysis tools.
Target sequence in this assay (Q05941 23-502): as the sequence (Q05941 23-502 limits assumed) above

[3] = FLIPR α7 activity rating (EC50, nM), agonist potency class
[4] = agonist potency class, read-out: FLIPR α7 activity rating (EC50)

EC50 [2, 4] [nM] | SMILES | EC50 [2, 3] [nM] | other results
 | c1ccc2sc(NC3=NC[C@@]4(CN5CC[C@@H]4C5)O3)nc2c1 |  | EC50 [1]: < 100 nM
 | Cc1cn(-c2cc(NC3=NC[C@@]4(C[N@@]5CC[C@@H]4C5)O3)ncn2)cn1 [Example 22, (3R,4R)—N-(6-(4-Methyl-1H-imidazol-1-yl)pyrimidin-4-yl)-4′H-1-azaspiro[bicyclo[2.2.1]heptane-3,5′-oxazol]-2′-amine] | 100 to 1000 | 
< 100 | COc1c(NC2=NC[C@@]3(C[N@@]4CC[C@@H]3C4)O2)ncnc1N1CCCC1 [Example 23, (3R,4R)—N-(5-Methoxy-6-(pyrrolidin-1-yl)pyrimidin-4-yl)-4′H-1-azaspiro[bicyclo[2.2.1]heptane-3,5′-oxazol]-2′-amine] |  | 
< 100 | c1ccc2nc(NC3=NC[C@@]4(C[N@@]5CC[C@@H]4C5)O3)nnc2c1 [Example 24, (3R,4R)—N-(Benzo[e][1,2,4]triazin-3-yl)-4′H-1-azaspiro[bicyclo[2.2.1]heptane-3,5′-oxazol]-2′-amine] |  | 
< 100 | Clc1ccc2oc(NC3=NC[C@@]4(C[N@@]5CC[C@@H]4C5)O3)nc2c1 [Example 25, (3R,4R)—N-(5-Chlorobenzo[d]oxazol-2-yl)-4′H-1-azaspiro[bicyclo[2.2.1]heptane-3,5′-oxazol]-2′-amine] |  | 
 | c1nc(NC2=NC[C@@]3(C[N@@]4CC[C@@H]3C4)O2)c2sccc2n1 [Example 27, (3R,4R)—N-(Thieno[3,2-d]pyrimidin-4-yl)-4′H-1-azaspiro[bicyclo[2.2.1]heptane-3,5′-oxazol]-2′-amine] | 100 to 1000 | 
 | Cc1csc2c(NC3=NC[C@@]4(C[N@@]5CC[C@@H]4C5)O3)ncnc12 [Example 28, (3R,4R)—N-(7-Methylthieno[3,2-d]pyrimidin-4-yl)-4′H-1-azaspiro[bicyclo[2.2.1]heptane-3,5′-oxazol]-2′-amine] | 100 to 1000 | EC50 ([2]; FLIPR α7-HI (EC50, nM), agonist potency): 222 nM
< 100 | Cc1ccc2nc(NC3=NC[C@@]4(C[N@@]5CC[C@@H]4C5)O3)oc2c1 [Example 29, (3R,4R)—N-(6-Methylbenzo[d]oxazol-2-yl)-4′H-1-azaspiro[bicyclo[2.2.1]heptane-3,5′-oxazol]-2′-amine] |  | 
